Read-outs that look alike come from different tables or passages of the source. Peptide text beside a SMILES is read from it. * marks the point of attachment. Cbz = O=C(OCc1ccccc1)*
What was measured:
TRIB3 = TRIB3 expression after cytokines or stressors, MCF7 cells (WB); assay type: cell-based, human; details: cytokines 8 hr, high glucose 24 hr
Method: Cycloheximide (CHX; Sigma Aldrich, R750107) was used as a protein synthesis inhibitor to assess the stability of the existing proteins. To assess protein stability, cells were treated with 20 μM CHX and the proteasome inhibitor MG132 (Sigma Aldrich, R750107) at 10 μM or the autophagy inhibitor BAF (Sigma Aldrich, B1793) at 200 nM for the indicated times. Protein expression was assessed via immunoblot analysis with cell lysates (20–60 μg) prepared in RIPA lysis buffer containing protease inhibitors (Roche) using anti-SOX2 (3529), anti-NANOG (4903), anti-OCT4 (2750), anti-KLF4 (4038), anti-c-Myc (13987), anti-FOXO1 (2880), anti-p-FOXO1 (9461), anti-AKT (4685), anti-p-AKT (4060), anti-β-ACTIN (4970), anti-Ubiquitin (3936), or anti-LaminA/C (4777) antibodies from CST; anti-TRIB3 antibody (ab75846) from Abcam; and anti-Trib3 antibody (PA5-15480) from Thermo Fisher Scientific[59]. All antibodies were used at 1:1000 dilution, with the exception of anti-β-Actin antibodies, which were used at 1:2000 dilution. The protein concentrations were determined by BCA Protein Assay Kits (Pierce). Proteins were separated by SDS-polyacrylamide gel electrophoresis (PAGE) and transferred to polyvinylidene difluoride membrane. […]
(f, g) The expression of
TRIB3 in MCF7 cells (top) or MDA-MB-231 cells (bottom) treated with various concentrations of IL6 for
8 hr (f) or 10 ng/ml IL-6 for different amounts of time (g) was detected by WB. (h) Silencing TRIB3
decreased the tumor sphere formation ability of MCF7 cells with or without IL-6 stimulation. […]
Data are shown as the mean ± SEM; P>0.05 was considered not significant (N.S.); *P<0.05, **P<0.01
and ***P<0.001, compared with the con group in panels d-f. Source data are provided as a Source Data

MCF7 cells = assay: TRIB3/AKT/FOXO1/SOX2 axis after IL-6, CoCl2 or high glucose, MCF7 cells (WB); assay type: cell-based, human
[1] = test system: HMLE cells overexpressing TRIB3; assay: Immunoblot of AKT1/FOXO1/SOX2, HMLE cells with AKT1 agonist SC79; assay type: cell-based, human; details: for Relative fold change AKT1 / Relative fold change FOXO1 / Relative fold change SOX2 / Relative fold change TRIB3 / Relative fold change p-AKT(473S) / Relative fold change p-FOXO1(256S): Fig.6d, HMLE, TRIB3-shRNA, v.s CTRL-shRNA+DMSO
Text: Fig. 6 TRIB3 abrogates the AKT-FOXO1 interaction. a Supervised clustering of MCF7 cells transfected with CTRL-shRNA or TRIB3-shRNA using the log2-transformed values for genes in the FOXO1 upstream pathway, including AMPK, ERK, PI3K, p38, and JNK clustered genes expressed in all samples. Each column represents a separate case. Z-scores from IPA depicting the subnetwork gene expression differences between CTRL-shRNA and TRIB3-shRNA cases. The Z-score heat map depicts the five FOXO1 upstream subnetworks. Each row represents the data for the subnetwork indicated in the right margin. b, c TRIB3 inhibited the activity of AKT1 in BCCs. The indicated stable expression cell extracts were prepared and the levels of the indicated proteins were detected by immunoblotting. d, e The effects of the AKT1 agonist or antagonist for TRIB3-FOXO1-SOX2 axis in BCCs. The indicated cells were treated with the AKT1 agonist SC79 or the antagonist MK2206 for 24 h. […] HMLE cell extracts were IP with an anti-AKT1 Ab and blotted with an anti-TRIB3 or anti-FOXO1 Ab in the presence of the indicated concentration of the TRIB3-GST protein. Data are shown as the mean ± SEM; P > 0.05 was considered not significant (NS); *P < 0.05, **P < 0.01, and ***P < 0.001 compared with the vector or CTRL-shRNA group. Source data are provided as a Source Data file.
(§1) Cycloheximide (CHX; Sigma Aldrich, R750107) was used as a protein synthesis inhibitor to assess the stability of the existing proteins. To assess protein stability, cells were treated with 20 μM CHX and the proteasome inhibitor MG132 (Sigma Aldrich, R750107) at 10 μM or the autophagy inhibitor BAF (Sigma Aldrich, B1793) at 200 nM for the indicated times. Protein expression was assessed via immunoblot analysis with cell lysates (20–60 μg) prepared in RIPA lysis buffer containing protease inhibitors (Roche) using anti-SOX2 (3529), anti-NANOG (4903), anti-OCT4 (2750), anti-KLF4 (4038), anti-c-Myc (13987), anti-FOXO1 (2880), anti-p-FOXO1 (9461), anti-AKT (4685), anti-p-AKT (4060), anti-β-ACTIN (4970), anti-Ubiquitin (3936), or anti-LaminA/C (4777) antibodies from CST; anti-TRIB3 antibody (ab75846) from Abcam; and anti-Trib3 antibody (PA5-15480) from Thermo Fisher Scientific[59]. All antibodies were used at 1:1000 dilution, with the exception of anti-β-Actin antibodies, which were used at 1:2000 dilution. The protein concentrations were determined by BCA Protein Assay Kits (Pierce). Proteins were separated by SDS-polyacrylamide gel electrophoresis (PAGE) and transferred to polyvinylidene difluoride membrane.

FOXO1 [2] = assay: FOXO1 protein stability (cycloheximide chase), MCF7 cells; assay type: cell-based, human
Method: Fig. 5 TRIB3 stabilizes the FOXO1 protein by suppressing its ubiquitination. a, b HMLE cells transfected with a TRIB3-expressing vector vs. a control vector (a) or MCF7 cells transfected with TRIB3-shRNA vs. CTRL-shRNA (b) were incubated with 20 μM cycloheximide (CHX) for the indicated times. c, d The effect of TRIB3 depletion on FOXO1 degradation in vitro. MCF7 cells (c) were incubated with CHX (20 μM), CHX plus bafilomycin (BAF, 200 nM), or MG132 (10 μM) for the indicated times. Control or TRIB3-silenced MCF7 cells (d, top) and MDA-MB-231 cells (d, bottom) were incubated with DMSO, 200 nM BAF, or 10 μM MG132 for 8 h. The indicated proteins were detected by immunoblotting. e, f FOXO1 activity in HMLE cells (e) transfected with a control vector or a TRIB3-expressing vector, or in MCF7 cells (f) transfected with CTRL-shRNA or TRIB3-shRNA and either a control vector or a FOXO1-expressing vector. g, h The effect of TRIB3 on FOXO1 ubiquitination. HMLE (g) or MCF7 cells (h) were transfected with the indicated plasmid. His-ubiquitin-conjugated proteins were pulled down from cell lysates. Total protein lysates and Ni-NTA-agarose eluates were immunoblotted for FLAG, His, and TRIB3. Source data are provided as a Source Data file. […] I left them out because their labels are genetic constructs, not substances; their digits are also small
as §1

FOXO1 [3] = assay: FOXO1 immunoblot in control or TRIB3-silenced MCF7 cells with BAF or MG132; assay type: cell-based, human; details: BAF 200 nM or MG132 10 μM, 8 h, in words
Method: (§2) Fig. 5 TRIB3 stabilizes the FOXO1 protein by suppressing its ubiquitination. a, b HMLE cells transfected with a TRIB3-expressing vector vs. a control vector (a) or MCF7 cells transfected with TRIB3-shRNA vs. CTRL-shRNA (b) were incubated with 20 μM cycloheximide (CHX) for the indicated times. c, d The effect of TRIB3 depletion on FOXO1 degradation in vitro. MCF7 cells (c) were incubated with CHX (20 μM), CHX plus bafilomycin (BAF, 200 nM), or MG132 (10 μM) for the indicated times. Control or TRIB3-silenced MCF7 cells (d, top) and MDA-MB-231 cells (d, bottom) were incubated with DMSO, 200 nM BAF, or 10 μM MG132 for 8 h. The indicated proteins were detected by immunoblotting. e, f FOXO1 activity in HMLE cells (e) transfected with a control vector or a TRIB3-expressing vector, or in MCF7 cells (f) transfected with CTRL-shRNA or TRIB3-shRNA and either a control vector or a FOXO1-expressing vector. g, h The effect of TRIB3 on FOXO1 ubiquitination. HMLE (g) or MCF7 cells (h) were transfected with the indicated plasmid. His-ubiquitin-conjugated proteins were pulled down from cell lysates. Total protein lysates and Ni-NTA-agarose eluates were immunoblotted for FLAG, His, and TRIB3. […]
(§3) Cycloheximide (CHX; Sigma Aldrich, R750107) was used as a protein synthesis inhibitor to assess the stability of the existing proteins. […] The protein concentrations were determined by BCA Protein Assay Kits (Pierce). […]

FOXO1 [4] = assay: FOXO1 immunoblot in control or TRIB3-silenced MDA-MB-231 cells with BAF or MG132; assay type: cell-based; details: BAF 200 nM or MG132 10 μM, 8 h, in words
Method: as §2, §3

[5] = HMLE cells overexpressing TRIB3, 24 h

OC[C@H]1OC(O)[C@H](O)[C@@H](O)[C@@H]1O (stereo partly shown) [high glucose, glucose]
TRIB3 expression (TRIB3): enhanced TRIB3 expression in MCF7 cells
expressions of FOXO1 and SOX2 (MCF7 cells; MCF7 cells, IL-6 12 hr, CoCl2 24 hr, high glucose 24 hr, WB): enhanced expressions of FOXO1 and SOX2
expressions of FOXO1 and SOX2 (MCF7 cells; MCF7 cells, IL-6 12 hr, CoCl2 24 hr, high glucose 24 hr, WB, listed as high-glucose): enhance
activity of FOXO1 S256 (MCF7 cells; MCF7 cells, IL-6 12 hr, high glucose 24 hr, WB): reduced the activity of FOXO1^S256

IL-1β: cytokine
TRIB3 expression (TRIB3): enhanced TRIB3 expression in MCF7 cells

CCOC(=O)C1=C(N)Oc2ccc(Cl)cc2C1C(C#N)C(=O)OCC (stereo not shown) [SC79]
Relative fold change AKT1 ([1]; replicate 1): 1.9500
Relative fold change FOXO1 ([1]; replicate 1): 0.4880
Relative fold change SOX2 ([1]; replicate 1): 5.8119
Relative fold change TRIB3 ([1]; replicate 1): 6.9492
Relative fold change p-AKT(473S) ([1]; replicate 1): 1.6733
Relative fold change p-FOXO1(256S) ([1]; replicate 1): 1.9882
Relative fold change AKT1 ([1]; replicate 2): 2.1500
Relative fold change FOXO1 ([1]; replicate 2): 0.5280
Relative fold change SOX2 ([1]; replicate 2): 6.4119
Relative fold change TRIB3 ([1]; replicate 2): 7.5492
Relative fold change p-AKT(473S) ([1]; replicate 2): 1.7733
Relative fold change p-FOXO1(256S) ([1]; replicate 2): 2.1782
Relative fold change AKT1 ([1]; replicate 3): 1.7500
Relative fold change FOXO1 ([1]; replicate 3): 0.4480
Relative fold change SOX2 ([1]; replicate 3): 5.2119
Relative fold change TRIB3 ([1]; replicate 3): 6.3492
Relative fold change p-AKT(473S) ([1]; replicate 3): 1.5733
Relative fold change p-FOXO1(256S) ([1]; replicate 3): 1.7982
FOXO1 and SOX2 expression [1, 5]: inhibited FOXO1 and SOX2 expression
activity of AKT1 S473 and FOXO1 S256 [1, 5]: rescued the activity of AKT1^S473 and FOXO1^S256

[Cl-].[Cl-].[Co+2] [CoCl2, reference compound]
expressions of FOXO1 and SOX2 (MCF7 cells): enhance

CC(C)C[C@@H](C=O)NC(=O)[C@H](CC(C)C)NC(=O)[C@H](CC(C)C)NC(=O)OCc1ccccc1 [MG132] (Cbz-Leu-Leu-Leu-aldehyde)
degradation of FOXO1 (FOXO1 [2]; CHX 20 μM plus BAF 200 nM or MG132 10 μM, in words): inhibited by the proteasome inhibitor MG132
FOXO1 half-life (FOXO1 [2]; CHX, authors' reply to reviewers, control about 3 hr): 6 h
inhibition of FOXO1 reduction caused by TRIB3 silencing (FOXO1 [3]): inhibited by MG132
inhibition of FOXO1 reduction caused by TRIB3 silencing (FOXO1 [4]): inhibited by MG132

transforming growth factor-β
TRIB3 expression (TRIB3): enhanced TRIB3 expression in MCF7 cells
